Measured values taken from ChEMBL document CHEMBL4814030, “Optimization of ether and aniline based inhibitors of lactate dehydrogenase” (Bioorg Med Chem Lett, 2021).
Values after ≈ are worked out from the molar mass of the structure shown.

Tests used:
[1] = biological target: T1, L-lactate dehydrogenase A chain (Homo sapiens, UniProt P00338); assay: Inhibition of recombinant human LDHA using sodium pyruvate as substrate preincubated for 5 mins followed by diaphorase/resazurin addition and measured after 20 mins by fluorescence based assay
[2] = biological target: T1, L-lactate dehydrogenase A chain; assay: Inhibition of LDHA in human MIA PaCa2 cells assessed as reduction in lactate production incubated for 2 hrs by fluorescence based assay; type: cell-based, MIA PaCa-2
MIA PaCa-2 = assay: Cytotoxicity against human MIA PaCa-2 cells assessed as reduction in cell viability incubated for 48 hrs by cell titer glo assay; type: functional, cell-based; settings: MIA PaCa-2, 48 h
[3] = biological target: T1, L-lactate dehydrogenase A chain; assay: Binding affinity to LDHA (unknown origin) by SPR analysis
[4] = Metabolic stability in rat microsomes assessed as half life; type: ADME, Microsome
[5] = Permeability of compound by PAMPA; type: ADME; settings: read-out: permeability
[6] = Kinetic solubility of compound; type: physicochemical; settings: read-out: Kinetic_solubility
A673 = assay: Cytotoxicity against human A673 cells assessed as reduction in cell viability incubated for 48 hrs by cell titer glo assay; type: functional, cell-based; settings: A673, 48 h
[7] = biological target: T1, L-lactate dehydrogenase A chain; assay: Inhibition of LDHA in human A673 cells assessed as reduction in lactate production incubated for 2 hrs by fluorescence based assay; type: cell-based

Structure (SMILES) | IC50 [1] [nM] | IC50 [2] [nM] | IC50 (MIA PaCa-2) [nM] | Kd [3] [nM] | t1/2 [4] [min] | Papp [5] [×10⁻⁶ cm/s] | solubility kinetic [6] [µg/mL] | IC50 (A673) [nM] | IC50 [7] [nM]
NS(=O)(=O)c1ccc(Cc2c(-c3ccc(F)c(Oc4cccc(F)c4)c3)nn(-c3nc(C(=O)O)cs3)c2CC2CC2)cc1F | 27 | 970 |  |  |  |  |  |  | 
NS(=O)(=O)c1ccc(Cc2c(-c3cccc(N4CCC(F)(F)CC4)c3)nn(-c3nc(C(=O)O)cs3)c2CC2CC2)cc1F | 17 | 8700 |  |  |  |  |  |  | 
NS(=O)(=O)c1ccc(Cc2cn(-c3nc(C(=O)O)cs3)nc2-c2cccc(OCc3cccnc3)c2)cc1 | 77 | > 57000 |  |  |  |  |  |  | 
COc1cc(-c2nn(-c3nc(C(=O)O)cs3)c(CC3CC3)c2Cc2ccc(S(N)(=O)=O)cc2)ccc1F | 8 | 5700 |  |  |  |  |  |  | 
NS(=O)(=O)c1ccc(Cc2c(-c3cccc(N4CCOCC4)c3)nn(-c3nc(C(=O)O)cs3)c2CC2CC2)cc1F | 27 | 23400 | 18700 | 0.44 | > 30 | 1.6 | > 88 | 20400 | 9400
NS(=O)(=O)c1ccc(Cc2c(-c3ccc(F)c(OCC4CCCO4)c3)nn(-c3nc(C(=O)O)cs3)c2CC2CC2)cc1F (stereo not given) | 5 | 2900 |  |  |  |  |  |  | 
NS(=O)(=O)c1ccc(Cc2c(-c3ccc(F)c(Oc4ccccc4)c3)nn(-c3nc(C(=O)O)cs3)c2CC2CC2)cc1 | 34 | 1700 |  |  |  |  |  |  | 
NS(=O)(=O)c1ccc(Cc2c(-c3ccc(F)c(OCc4ccc(F)cc4)c3)nn(-c3nc(C(=O)O)cs3)c2CC2CC2)cc1 | 84 | 3300 |  |  |  |  |  |  | 
NS(=O)(=O)c1ccc(Cc2c(-c3ccc(F)c(OCC4CCOC4)c3)nn(-c3nc(C(=O)O)cs3)c2CC2CC2)cc1F (stereo not given) | 5 | 3000 |  |  |  |  |  |  | 
NS(=O)(=O)c1ccc(Cc2c(-c3ccc(F)c(C(=O)N4CCCC4)c3)nn(-c3nc(C(=O)O)cs3)c2CC2CC2)cc1F | 154 | 19900 | 6600 |  | > 30 | 5.7 | > 93 | > 50000 | 16600
NS(=O)(=O)c1ccc(Cc2c(-c3cccc(OC4CCCC4)c3)nn(-c3nc(C(=O)O)cs3)c2CC2CC2)cc1F | 13 | 710 |  |  |  |  |  |  | 
NS(=O)(=O)c1ccc(Cc2cn(-c3nc(C(=O)O)cs3)nc2-c2cccc(OCc3cccc(F)c3)c2)cc1 | 26 | 6100 |  |  |  |  |  |  | 
NS(=O)(=O)c1ccc(Cc2c(-c3ccc(F)c(OCc4ccc(C(F)(F)F)o4)c3)nn(-c3nc(C(=O)O)cs3)c2CC2CC2)cc1F | 23 | 1000 | 2100 | 0.001 | > 30 | 12 | 53.2 (≈ 76.6 µM) | 440 | 1100
COc1cccc(-c2nn(-c3nc(C(=O)O)cs3)cc2Cc2ccc(S(N)(=O)=O)cc2)c1 | 90 | > 57000 |  |  |  |  |  |  | 
NS(=O)(=O)c1ccc(Cc2c(-c3ccc(F)c(C(=O)NCc4ccccc4)c3)nn(-c3nc(C(=O)O)cs3)c2CC2CC2)cc1F | 8 | 9100 | 15700 |  | 14.9 | 8.7 | 81 (≈ 122 µM) | 5100 | 4700
NS(=O)(=O)c1ccc(Cc2cn(-c3nc(C(=O)O)cs3)nc2-c2cccc(OCc3ccccn3)c2)cc1 | 23 | > 57000 |  |  |  |  |  |  | 
NS(=O)(=O)c1ccc(Cc2cn(-c3nc(C(=O)O)cs3)nc2-c2cccc(OCC3CCCC3)c2)cc1 | 29 | 7700 |  |  |  |  |  |  | 
NS(=O)(=O)c1ccc(Cc2c(-c3cccc(N4CCCC(C(F)(F)F)C4)c3)nn(-c3nc(C(=O)O)cs3)c2CC2CC2)cc1F (stereo not given) | 59 | 6900 |  |  |  |  |  |  | 
NS(=O)(=O)c1ccc(Cc2c(-c3cccc(OCc4ccccc4)c3)nn(-c3nc(C(=O)O)cs3)c2CC2CC2)cc1F | 19 | 690 | 1400 | 0.016 | 2.8 | 1.1 | 72.4 (≈ 117 µM) | 420 | 590

Structure (SMILES) | IC50 [1] [nM] | IC50 [2] [nM] | IC50 (MIA PaCa-2) [nM] | Kd [3] [nM] | t1/2 [4] [min] | Papp [5] [×10⁻⁶ cm/s] | solubility kinetic [6] [µg/mL] | IC50 (A673) [nM] | IC50 [7] [nM]
Cc1ccc(Oc2cc(-c3nn(-c4nc(C(=O)O)cs4)c(CC4CC4)c3Cc3ccc(S(N)(=O)=O)c(F)c3)ccc2F)cc1 | 26 | 870 | 2100 | 1.1 | 6.2 | 13 | 24 (≈ 37.7 µM) | 550 | 550
CC(C)(C)NC(=O)c1cc(-c2nn(-c3nc(C(=O)O)cs3)c(CC3CC3)c2Cc2ccc(S(N)(=O)=O)c(F)c2)ccc1F | 6 | 11700 |  |  |  |  |  |  | 
NS(=O)(=O)c1ccc(Cc2c(-c3ccc(F)c(N4CCCC4=O)c3)nn(-c3nc(C(=O)O)cs3)c2CC2CC2)cc1F | 111 | 6000 |  |  |  |  |  |  | 
Cc1ccc(COc2cccc(-c3nn(-c4nc(C(=O)O)cs4)cc3Cc3ccc(S(N)(=O)=O)cc3)c2)cc1 | 39 | 7500 |  |  |  |  |  |  | 
NS(=O)(=O)c1ccc(Cc2c(-c3cccc(Oc4cccc(F)c4)c3)nn(-c3nc(C(=O)O)cs3)c2CC2CC2)cc1 | 1060 | 19000 |  |  |  |  |  |  | 
NS(=O)(=O)c1ccc(Cc2c(-c3ccc(F)c(Oc4ccc(C(F)(F)F)cc4)c3)nn(-c3nc(C(=O)O)cs3)c2CC2CC2)cc1F | 71 | 1100 |  |  |  |  |  |  | 
CC(C)N1CC2(CN(c3cc(-c4nn(-c5nc(C(=O)O)cs5)c(CC5CC5)c4Cc4ccc(S(N)(=O)=O)c(F)c4)ccc3F)C2)C1 | 37 | 24100 |  |  |  |  |  |  | 
NS(=O)(=O)c1ccc(Cc2c(-c3cccc(N4CCC(C(F)(F)F)CC4)c3)nn(-c3nc(C(=O)O)cs3)c2CC2CC2)cc1F | 47 | 2400 |  |  |  |  |  |  | 
NS(=O)(=O)c1ccc(Cc2cn(-c3nc(C(=O)O)cs3)nc2-c2cccc(Oc3ccccc3)c2)cc1 | 17 | 9400 |  |  |  |  |  |  | 
NS(=O)(=O)c1ccc(Cc2c(-c3ccc(F)c(OCc4cccc(F)c4)c3)nn(-c3nc(C(=O)O)cs3)c2CC2CC2)cc1F | 22 | 670 | 2100 | 0.91 | < 1 | 2.9 | 10.7 (≈ 16.3 µM) | 550 | 730
NS(=O)(=O)c1ccc(Cc2c(-c3ccc(F)c(OCC4CC4(F)F)c3)nn(-c3nc(C(=O)O)cs3)c2CC2CC2)cc1F (stereo not given) | 5 | 1400 | 2400 | 0.008 | > 30 | 4.9 | 76.1 (≈ 120 µM) | 900 | 1100
COc1cccc(COc2cccc(-c3nn(-c4nc(C(=O)O)cs4)cc3Cc3ccc(S(N)(=O)=O)cc3)c2)c1 | 21 | 5400 |  |  |  |  |  |  | 
NS(=O)(=O)c1ccc(Cc2c(-c3ccc(F)c(C(=O)N4CCOCC4)c3)nn(-c3nc(C(=O)O)cs3)c2CC2CC2)cc1F | 22 | 3200 |  |  |  |  |  |  | 
NS(=O)(=O)c1ccc(Cc2c(-c3cccc(N4CCC(F)(F)C4)c3)nn(-c3nc(C(=O)O)cs3)c2CC2CC2)cc1F | 15 | 4200 |  |  |  |  |  |  | 
NS(=O)(=O)c1ccc(Cc2c(-c3ccc(F)c(OC4CC4)c3)nn(-c3nc(C(=O)O)cs3)c2CC2CC2)cc1F | 8 | 2100 | 5700 | 0.004 | > 30 | 5.8 | > 87 | 1500 | 1900
NS(=O)(=O)c1ccc(Cc2c(-c3cccc(Nc4ccccc4)c3)nn(-c3nc(C(=O)O)cs3)c2CC2CC2)cc1 | 314 | 6700 | 21200 | 1.5 | 6 | 4.4 | 49.3 (≈ 84.2 µM) | 34500 | 3100
NS(=O)(=O)c1ccc(Cc2c(-c3ccc(F)c(NC(=O)c4ccccc4)c3)nn(-c3nc(C(=O)O)cs3)c2CC2CC2)cc1F | 7 | 5000 | 17400 |  | > 30 | 6.4 | > 98 | 5300 | 2300
NS(=O)(=O)c1ccc(Cc2c(-c3cccc(N4CCCC(F)(F)C4)c3)nn(-c3nc(C(=O)O)cs3)c2CC2CC2)cc1F | 18 | 8600 |  |  |  |  |  |  | 
NS(=O)(=O)c1ccc(Cc2c(-c3ccc(F)c(Oc4ccc(F)cc4)c3)nn(-c3nc(C(=O)O)cs3)c2CC2CC2)cc1F | 41 | 1700 |  |  |  |  |  |  | 
